Measurements: patent US20070293582A1, “Epinephrine dosing regimens comprising buccal, lingual or sublingual and injectable dosage forms” (priority 2006, published 2007)
Where two headings read alike, the source gives them in different places.

System: patient experiencing an allergic emergency (symptoms of anaphylaxis)
Conditions: approximately 5 minutes apart
Experimental: (§1) A patient experiencing an allergic emergency initiates treatment at the onset of shortness of breath by self administering 40 mg of epinephrine free base in a buccal dosage form.
as §1
A patient experiencing an allergic emergency initiates treatment at the onset of shortness of breath by self administering 40 mg of epinephrine free base in a lingual dosage form.

Measured: patient's symptoms of anaphylaxis

CNC[C@H](O)c1ccc(O)c(O)c1 [epinephrine]
relieved: Example 1: 40 mg buccal, second 40 mg buccal, then first auto-injected 0.3 mg dose, outcome within about five minutes after the first injectable dose | Example 2: 40 mg buccal, 60 mg buccal, then two auto-injected 0.3 mg doses, outcome within about five minutes after the second injectable dose | Example 3: 40 mg lingual, 60 mg lingual, then two auto-injected 0.3 mg doses, outcome within about five minutes after the second injectable dose
